In US20130005568A1, “SAFENED HERBICIDAL MIXTURES” (E.I. DU PONT DE NEMOURS AND COMPANY, priority 2011, published 2013):

Assays:
Alexandergrass = assay: Test K: pasture grass postemergence plant response rating, field conditions; format: in vivo, Brachiaria plantaginea (Link) A. S. Hitchc.; settings: Compound 1 alone 140 g ai/ha; Test K plants
Excerpt: (§1) For all of the following biological tests, plant response ratings were based on a 0-100 scale where zero is growth equivalent to that of untreated plants (no plant response) and 100 represents no additional growth occurring after herbicide treatment.
(§2) Herbicide mixtures were formulated, dissolved/dispersed in water containing 0.25% non-ionic surfactant, and sprayed postemergence to the pasture grasses: Surinam grass (Brachiaria decumbens Stapf), palisade grass (Brachiaria brizantha (Hochst. ex A. Rich) Stapf) and Alexandergrass (Brachiaria plantaginea (Link) A. S. Hitchc.) approximately 10-30 cm tall (extended leaf height). This test was conducted under field conditions. Visual evaluations of plant responses were recorded four weeks after the plants were treated.

palisade grass = assay: as above; format: in vivo, Brachiaria brizantha (Hochst. ex A. Rich) Stapf; settings: Compound 1 alone 140 g ai/ha; Test K plants
Excerpt: as §1, §2

Venice mallow = assay: Test G: turf grass and weed postemergence plant response rating; format: in vivo, Hibiscus trionium L.; settings: Compound 1 alone 125 g ai/ha; Test G plants
Excerpt: as §1
(§3) Plants of the turf grass species: zoysia (Zoysia japonica Steud.), bermudagrass (Cynodon dactylon (L.) Pers.), tall fescue (Festuca arundinacea Shreib.), creeping bentgrass (Agrostis stoonoifera L.), perennial ryegrass (Lolium perenne L.) and hard fescue (Festuca species) were grown under greenhouse conditions for four months. Plants were clipped as needed to plant heights of 5-10 cm. Weeds typically found in turf: annual bluegrass (Poa annua L.), common chickweed (Stellaria media (L.) Vill.), large crabgrass (Digitaria sanguinales (L.) Scop.), dandelion (Taraxacum officinale Weber in Wiggers), goosegrass (Eleusine indica (L.) Gaertn.), henbit (Lamium amplexicaule L.), venice mallow (Hibiscus trionium L.) and purple nutsedge (Cyperus rotundus L.) were also grown under greenhouse conditions so that plants were 5-20 cm tall when they were treated. Herbicide mixtures were formulated, dissolved/dispersed in water containing 0.25% non-ionic surfactant, and sprayed postemergence to these turf grasses and weeds. Treated plants were grown under greenhouse conditions for three weeks before visual evaluations of plant responses were recorded.

Henbit = assay: as above; format: in vivo, Lamium amplexicaule L.; settings: Compound 1 alone 125 g ai/ha; Test G plants
Excerpt: as §1, §3

Creeping bentgrass = assay: as above; format: in vivo, Agrostis stoonoifera L.; settings: Compound 1 alone 125 g ai/ha; Test G plants
Excerpt: as §1, §3

[1] = tested on: Pioneer 39K40 hybrid maize; assay: Test A: visual plant response rating, postemergence herbicide treatments alone and with Compound 1; format: in vivo, Zea mays L. spp. indentata Sturt.; settings: Compound 1 alone 125 g ai/ha; Test A
Protocol: as §1
Pioneer 39K40 hybrid maize used in this test (and also Tests B and C) is particularly sensitive to herbicides that inhibit the acetohydroxy acid synthase enzyme. Herbicide mixtures were dissolved/dispersed in a non-phytotoxic liquid carrier and were sprayed postemergence to Pioneer 39K40 hybrid maize (Zea mays L. spp. indentata Sturt.) in the third collar growth stage (extended leaf height was 50-60 cm). Treated plants were grown under greenhouse conditions for two weeks before visual evaluations of plant responses were recorded.

Surinam grass = assay: Test K: pasture grass postemergence plant response rating, field conditions; format: in vivo, Brachiaria decumbens Stapf; settings: Compound 1 alone 140 g ai/ha; Test K plants
Excerpt: as §1, §2

Dandelion = assay: Test G: turf grass and weed postemergence plant response rating; format: in vivo, Taraxacum officinale Weber in Wiggers; settings: Compound 1 alone 125 g ai/ha; Test G plants
Excerpt: as §1, §3

blackgrass = assay: Test F: preemergence plant response rating; format: in vivo, Alopecurus myosuroides Huds; settings: Compound 1 alone 125 g ai/ha; Test F plants
Excerpt: as §1
(§4) Herbicide mixtures were formulated, dissolved/dispersed in water, and sprayed preemergence to the crops: winter wheat (Triticum aestivum L.) and winter barley (Hordeum vulgare L.), and the weed: blackgrass (Alopecurus myosuroides Huds). Treated plants were grown under greenhouse conditions for three weeks before visual evaluations of plant responses were recorded.

Annual bluegrass = assay: Test G: turf grass and weed postemergence plant response rating; format: in vivo, Poa annua L.; settings: Compound 1 alone 125 g ai/ha; Test G plants
Excerpt: as §1, §3

Zoysia grass = assay: as above; format: in vivo, Zoysia japonica Steud.; settings: Compound 1 alone 125 g ai/ha; Test G plants
Excerpt: as §1, §3

winter wheat = assay: Test F: preemergence plant response rating; format: in vivo, Triticum aestivum L.; settings: Compound 1 alone 125 g ai/ha; Test F plants
Excerpt: as §1, §4

Perennial ryegrass = assay: Test G: turf grass and weed postemergence plant response rating; format: in vivo, Lolium perenne L.; settings: Compound 1 alone 125 g ai/ha; Test G plants
Excerpt: as §1, §3

Goosegrass = assay: as above; format: in vivo, Eleusine indica (L.) Gaertn.; settings: Compound 1 alone 125 g ai/ha; Test G plants
Excerpt: as §1, §3

Chickweed = assay: as above; format: in vivo, Stellaria media (L.) Vill.; settings: Compound 1 alone 125 g ai/ha; Test G plants
Excerpt: as §1, §3

Bermudagrass = assay: as above; format: in vivo, Cynodon dactylon (L.) Pers.; settings: Compound 1 alone 125 g ai/ha; Test G plants
Excerpt: as §1
Plants of the turf grass species: zoysia (Zoysia japonica Steud.), bermudagrass (Cynodon dactylon (L.) Pers.), tall fescue (Festuca arundinacea Shreib.), creeping bentgrass (Agrostis stoonoifera L.), perennial ryegrass (Lolium perenne L.) and hard fescue (Festuca species) were grown under greenhouse conditions for four months. Plants were clipped as needed to plant heights of 5-10 cm. […] Herbicide mixtures were formulated, dissolved/dispersed in water containing 0.25% non-ionic surfactant, and sprayed postemergence to these turf grasses and weeds. Treated plants were grown under greenhouse conditions for three weeks before visual evaluations of plant responses were recorded.

lambsquarters = assay: Test I: postemergence plant response rating; format: in vivo, Chenopodium album L.; settings: Compound 1 alone 125 g ai/ha; Test I plants
Excerpt: as §1
Herbicide mixtures were formulated, dissolved/dispersed in water containing 0.25% non-ionic surfactant, and sprayed postemergence to the crop: soybean (Glycine max (L.) Merr.) at the 2-leaf growth stage and to weeds: lambsquarters (Chenopodium album L.) and velvetleaf (Abutilon theophrasti Medik.). Weed species were 5-10 cm tall when treated. Treated plants were grown under greenhouse conditions for two weeks before visual evaluations of plant responses were recorded.

Large crabgrass = assay: Test G: turf grass and weed postemergence plant response rating; format: in vivo, Digitaria sanguinales (L.) Scop.; settings: Compound 1 alone 125 g ai/ha; Test G plants
Excerpt: as §1, §3

spring barley = assay: Test E: postemergence plant response rating; format: in vivo, Hordeum vulgare L.; settings: Compound 1 alone 125 g ai/ha; Test E plants
Excerpt: as §1
(§5) Herbicide mixtures were formulated, dissolved/dispersed in water containing 0.25% non-ionic surfactant, sprayed postemergence to the crops: winter wheat (Triticum aestivum L.), spring wheat (Triticum aestivum L.), winter barley (Hordeum vulgare L.) and spring barley (Hordeum vulgare L.), and the weeds: blackgrass (Alopecurus myosuroides Huds.), lambsquarters (Chenopodium album L.) and pigweed (Amaranthus retroflexus L.). Treated plants were grown under greenhouse conditions for two weeks before visual evaluations of plant responses were recorded.

winter barley = assay: Test E: postemergence plant response rating; format: in vivo, Hordeum vulgare L.; settings: Compound 1 alone 125 g ai/ha; Test E plants
Excerpt: as §1, §5

Measured: injury, Compound 1 alone

Cc1ccccc1S(=O)(=O)NC(N)=O [Compound 1, N-(aminocarbonyl)-2-methylbenzenesulfonamide]
no injury: all assays above
